According to patent US11473055B2, “Virus-free cell lines and methods for obtaining same” (Glycobac, LLC, priority 2015, dated 2022):

Key:
Sf-rhabdovirus [1] = test: Sf-rhabdovirus RT-PCR/nested PCR of single Sf9 cell subclones isolated by limiting dilution and treated with antiviral drugs; type: cell-based, Spodoptera frugiperda; conditions: single Sf9 cell subclone, 10 μg/ml, about a month (FIG. 2B)
Protocol: Example 3. Exemplary method for obtaining an established Sf cell line characterized by a lack of virus. […] This exemplary embodiment comprised isolating single Sf9 cells by limiting dilution, then treating the isolated cell subclones with antiviral drugs. […] The cells were cultured for about a month with ad hoc amplification to produce progressively larger cultures and, after achieving the 25 cm^2 flask level, samples were tested for Sf-rhabdovirus contamination by PCR, as described in Example 4. A clone lacking Sf-rhabdovirus contamination (FIG. 2B) was transferred to media lacking antiviral drugs, designated Sf-RVN passage zero (PO) and, at P2, transferred to a shake-flask culture in serum-free ESF 921 medium and subsequently maintained in this culture medium and format.
Example 4. Sf-rhabdovirus-specific Reverse Transcription-PCR (RT-PCR)/nested PCR. […] One μL of each primary PCR (RT-PCR) was then used as the template for secondary PCR's (RT-PCR/nested PCR) under the same conditions, except the primers were nested Sf-rhabdovirus-specific primers Mono-1i (SEQ ID NO: 7) and Mono-2i (SEQ ID NO: 8).

Sf-rhabdovirus [2] = test system: Sf-rhabdovirus
Tn-nodavirus = Tn-nodavirus RT-PCR/nested PCR of single TN-368 cell subclones treated with ribavirin; type: cell-based, Trichoplusia ni; conditions: single TN-368 cell subclone, 200 μg/mL, about a month (FIG. 14)
Protocol: Example 15. Exemplary method for obtaining an established T. ni cell line that lacks virus. After discovering polyclonal TN-368 cell cultures treated with antiviral drug cocktails remained Tn-nodavirus-positive, we employed a disclosed method for obtaining a virus-free cell line. […] The first culture composition was cultured for about a month with ad hoc amplification to produce progressively larger cultures and, after achieving the 25 cm^2 flask level, samples were tested for Tn-nodavirus by RT-PCR, followed by nested PCR, as described in Example 16. […] The clone, designated Tn-NVN passage zero (PO), was adapted to serum-free ESF 921 medium and grown in suspension. The Tn-NVN cell line was subsequently maintained in this second culture composition and growth format.

Compound | Sf-rhabdovirus RNA by RT-PCR followed by nested PCR (Sf-rhabdovirus [1]) | Sf-rhabdovirus RNA by RT-PCR (Sf-rhabdovirus [2]; polyclonal Sf9 cells, 100 μg/ml, about a month, still in presence of drug (FIG. 1A)) | Sf-rhabdovirus RNA by RT-PCR/nested PCR after transfer to drug-free medium (Sf-rhabdovirus [2]; ribavirin-treated Sf9 cells transferred to culture medium lacking antiviral drugs (FIG. 1B)) | Tn-nodavirus RNA by RT-PCR followed by nested PCR (Tn-nodavirus)
O=c1cnn([C@@H]2O[C@H](CO)[C@@H](O)[C@H]2O)c(=O)[nH]1 [6-azauridine] | negative for Sf-rhabdovirus contamination |  |  | 
NC(=O)c1ncn([C@@H]2O[C@H](CO)[C@@H](O)[C@H]2O)n1 [ribavirin] |  | no RT-PCR-detectable Sf-rhabdovirus | reverted to the Sf-rhabdovirus-positive phenotype | lacking Tn-nodavirus
